Reference: patent publication US20170260519A1, “METHOD OF CULTIVATING MICROORGANISMS HAVING NITRILE HYDRATASE ACTIVITY” (priority 2014, published 2017)

Assays:
[1] = system: R. rhodochrous “CIBA” (NCIMB 41164); assay: Relative nitrile hydratase activity after cultivation of R. rhodochrous "CIBA" with different carbon sources; assay type: cell-based, Rhodococcus rhodochrous; conditions: 10 g/l, 64 h
Experimental: In context with the present invention, activity of an nitrile hydratase in the sense of the present invention can be determined as follows: First reacting 100 μl of a cell suspension, cell lysate, dissolved enzyme powder or any other preparation containing the supposed nitrile hydratase with 875 μl of an 50 mM potassium phosphate buffer and 25 μl of acrylonitrile at 25° C. on an eppendorf tube shaker at 1,000 rpm for 10 minutes. After 10 minutes of reaction time, samples are drawn and immediately quenched by adding the same volume of 1.4% hydrochloric acid. After mixing of the sample, cells are removed by centrifugation for 1 minute at 10,000 rpm and the amount of acrylamide formed is determined by analyzing the clear supernatant by HPLC. The concentration of acrylamide shall be between 0.25 and 1.25 mmol/l—if necessary, the sample has to be diluted accordingly and the conversion has to be repeated. The enzyme activity is deduced from the concentration of acrylamide by dividing the acrylamide concentration derived from HPLC analysis by the reaction time, which has been 10 minutes and by multiplying this value with the dilution factor between HPLC sample and original sample. […]) and/or to the nucleotide sequence of SEQ ID NO: 3 (beta-subunit of nitrile hydratase of R. rhodochrous: […]), provided that the polypeptide encoded by said polynucleotide is capable of catalyzing hydration of acrylonitrile to acrylamide (i.e. has nitrile hydratase activity) as described and exemplified herein. […] VIV) and/or to the amino acid sequence of SEQ ID NO: 4 (beta-subunit of nitrile hydratase of R. rhodochrous: […]), provided that said polypeptide is capable of catalyzing hydration of acrylonitrile to acrylamide as described and exemplified herein.
Different sugar/organic acid ratios were evaluated for different strains of Rhodococcus (R. rhodochrous “CIBA” (NCIMB 41164) and R. rhodochrous “J1” (FERM BP-1478)), in a microfermentation system.
The basic cultivation medium contained yeast extract (Biospringer) (1.25 g/l), KH2PO4 (10 g/l), K2HPO4 (10 g/l), (NH4)2SO4 (1 g/l), MgSO4*7H2O (0.375 g/l), CaCl2*2H2O (25 mg/l), Trace element solution (2.5 g/l) (see below), Co(NO3)2 (31.2 mg/l), anti-foam P2000 (BASF) (62.5 mg/l), urea (7 g/l), and ammonium glutamate (2.5 g/l) in H2O.
Trace Element Solution: Citric acid mono hydrate (40 g/l), ZnSO4*7H2O (11 g/l), (NH4)2Fe(SO4)2*6H2O (8.5 g/l), MnSO4*H2O (3 g/l), and CuSO4*5H2O (0.8 g/l) in H2O.
The medium was then supplemented with 10 g/l of carbon source (saccharide, organic acid or mixture of both as indicated in the Tables below). pH was adjusted to 6.6 using H3PO4 or NaOH. The medium was inoculated directly from cryo stocks to OD 0.05 (measured at 600 nm). Cultivation was carried out at 37° C. for 64 h at 1,100 rpm in a BioLector micro fermentation system (M2P Labs, Baesweiler, Germany) using 48-well flower plates with a working volume of 1.5 ml. After cultivation, samples were drawn, quenched with hydrochloric acid and nitrile hydratase activity was determined as described in Example 2.
Nitrile hydratase activities achieved with the saccharide as sole carbon source were set to 100%.

[2] = system: R. rhodochrous “J1” (FERM BP-1478); assay: Relative nitrile hydratase activity after cultivation of R. rhodochrous "J1" with different carbon sources; assay type: cell-based, Rhodococcus rhodochrous; conditions: 10 g/l, 64 h
Experimental: In context with the present invention, activity of an nitrile hydratase in the sense of the present invention can be determined as follows: First reacting 100 μl of a cell suspension, cell lysate, dissolved enzyme powder or any other preparation containing the supposed nitrile hydratase with 875 μl of an 50 mM potassium phosphate buffer and 25 μl of acrylonitrile at 25° C. on an eppendorf tube shaker at 1,000 rpm for 10 minutes. After 10 minutes of reaction time, samples are drawn and immediately quenched by adding the same volume of 1.4% hydrochloric acid. After mixing of the sample, cells are removed by centrifugation for 1 minute at 10,000 rpm and the amount of acrylamide formed is determined by analyzing the clear supernatant by HPLC. The concentration of acrylamide shall be between 0.25 and 1.25 mmol/l—if necessary, the sample has to be diluted accordingly and the conversion has to be repeated. The enzyme activity is deduced from the concentration of acrylamide by dividing the acrylamide concentration derived from HPLC analysis by the reaction time, which has been 10 minutes and by multiplying this value with the dilution factor between HPLC sample and original sample. […]
Different sugar/organic acid ratios were evaluated for different strains of Rhodococcus (R. rhodochrous “CIBA” (NCIMB 41164) and R. rhodochrous “J1” (FERM BP-1478)), in a microfermentation system. […]
The medium was then supplemented with 10 g/l of carbon source (saccharide, organic acid or mixture of both as indicated in the Tables below). pH was adjusted to 6.6 using H3PO4 or NaOH. The medium was inoculated directly from cryo stocks to OD 0.05 (measured at 600 nm). […] After cultivation, samples were drawn, quenched with hydrochloric acid and nitrile hydratase activity was determined as described in Example 2. […]

[3] = Only acid as carbon source, 37° C., fructose as sole carbon source = 100%
[4] = Only acid as carbon source, 37° C., glucose as sole carbon source = 100%
[5] = Only acid as carbon source, 37° C., mannose as sole carbon source = 100%
[6] = Only acid as carbon source, 37° C., ribose as sole carbon source = 100%
[7] = Only saccharide as carbon source, set to 100%

O=C(O)CC(O)C(=O)O (stereo not drawn) [Malic, malic acid]
relative nitrile hydratase activity [1, 3]: 39%
relative nitrile hydratase activity [1, 4]: 197%
relative nitrile hydratase activity [1, 5]: 1579%
relative nitrile hydratase activity [1, 6]: 1693%

O=C(O)CC(O)(CC(=O)O)C(=O)O [Citric, citric acid]
relative nitrile hydratase activity [1, 3]: 32%
relative nitrile hydratase activity [1, 4]: 164%
relative nitrile hydratase activity [1, 5]: 1315%
relative nitrile hydratase activity [1, 6]: 1409%

O=C(O)C(O)C(O)C(=O)O (stereo not drawn) [Tartaric, tartaric acid]
relative nitrile hydratase activity [1, 3]: 34%
relative nitrile hydratase activity [1, 4]: 173%
relative nitrile hydratase activity [1, 5]: 1388%
relative nitrile hydratase activity [1, 6]: 1487%

CC(O)C(=O)O (stereo not drawn) [Lactic, lactic acid]
relative nitrile hydratase activity [2, 3]: 73%
relative nitrile hydratase activity [2, 4]: 1963%

O=C(CO)[C@@H](O)[C@H](O)[C@H](O)CO [Fructose, fructose]
relative nitrile hydratase activity [2, 7]: 100%
relative nitrile hydratase activity [1, 7]: 100%

O=C[C@H](O)[C@H](O)[C@H](O)CO [Ribose, ribose]
relative nitrile hydratase activity [1, 7]: 100%

O=C(O)CCC(=O)O [Succinic, succinic acid]
relative nitrile hydratase activity [1, 3]: 30%
relative nitrile hydratase activity [1, 4]: 150%
relative nitrile hydratase activity [1, 5]: 1204%
relative nitrile hydratase activity [1, 6]: 1291%
